The text below walks through data of patent publication US8193191B2, “Urotensin II receptor antagonists” (Janssen Pharmaceutica N.V., priority 2006, dated 2012).

Test [1] has as its target T1, Human UII receptor, 6D9 human rhabdomyosarcoma cells (Homo sapiens, UniProt Q9UKP6).
T1 construct: 6D9: isolated by dilution subcloning of RMS13 cells, ATCC® Number: CRL-2061; host or cells: 6D9 human rhabdomyosarcoma cells (subclone of RMS13)
T1 sequence (Q9UKP6 1-389): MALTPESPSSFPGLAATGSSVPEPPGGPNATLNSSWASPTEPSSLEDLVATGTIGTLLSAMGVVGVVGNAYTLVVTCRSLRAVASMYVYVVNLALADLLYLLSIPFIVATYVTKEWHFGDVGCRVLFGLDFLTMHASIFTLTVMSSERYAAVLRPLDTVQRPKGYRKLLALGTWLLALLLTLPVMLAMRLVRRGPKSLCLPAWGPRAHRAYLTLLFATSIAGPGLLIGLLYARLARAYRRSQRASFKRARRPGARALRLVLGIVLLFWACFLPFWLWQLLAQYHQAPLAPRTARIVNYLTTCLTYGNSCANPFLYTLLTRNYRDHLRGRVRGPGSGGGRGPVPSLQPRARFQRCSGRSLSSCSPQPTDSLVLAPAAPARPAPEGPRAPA
The test can be described thus: Human UII Calcium Mobilization Assay. The conditions noted are these: average value, FLIPR TETRA, read-out: Human UII Ca^+ Mobilization Average IC50. It counts as cell-based. On the procedure:
6D9 human rhabdomyosarcoma cells were seeded into tissue culture treated 384-well black-walled clear bottom plates (3712, Corning Incorporated, Corning, N.Y.) at 8,000 cells/well in 25 μL of culture medium, and maintained in an incubator (5% CO2 at 37° C.) for 22 hrs prior to the calcium mobilization assay. 25 μL of dye solution was added to the wells such that the final liquid volume before agonist/antagonist treatment was 50 μL for all assays. The cell plates were incubated at 37° C. for 45 minutes and the fluorescence intensity was measured on a Fluorometric Imaging Plate Reader (FLIPR^TETRA, Molecular Devices, Sunnyvale, Calif.).
Antagonist and agonist U-II were added at room temperature on the FLIPR^TETRA, and the fluorescence intensity before and after addition was measured over a period of 4 minutes. The dye incubation time and temperature as well as instrument setting was adjusted so the fluorescence intensity could be compared between plates on the same day. EC50 and IC50 were analyzed using GraphPad Prism 4 software (GraphPad Software Inc., San Diego, Calif.).
Materials and reagent Preparation: Human Rhabdomyosarcoma cells (6D9: isolated by dilution subcloning of RMS13 cells, ATCC® Number: CRL-2061, American Type Culture Collection ATCC, Manassas, Va.) was maintained in RPMI-1640 medium (30-2001, ATCC, Manassas, Va.) supplemented with 10% (v/v) Fetal Bovine Serum (SH30071.03, Hyclone, Logan, Utah).
Dye preparation: BD™ Calcium Assay Kit (80500-301, BD Biosciences, Rockville, Md.) was prepared according to the manufacture's instruction in 1× Hanks' balanced salt solution (HBSS, 21-023-CV, Mediatech, Inc. Herndon, Va.) containing 20 mM HEPES buffer (25-060-CI, Mediatech, Inc. Herndon, Va.). Final dye loading conditions included 1.25 mM probenecid (P36400, Invitrogen, Carlsbad, Calif.) and 0.01% FBS.
Urantide (PUT-3639-PI, Peptide International, Louisville, Ky.) was prepared in water at 5 mM. For assays, U-II agonist, U-II antagonist and urantide were diluted with HBSS/HEPES containing 0.01% FBS.
Test compounds were dissolved in DMSO at 10 mM concentration. The serial dilutions were carried out in HBSS/HEPES. The highest final DMSO concentration was at 0.1%.
On the technique in general: Calcium flux is commonly read through the fluorescence of an indicator in the cells.

Test [2] has as its target T2, rat GPR14 (U-II receptor) (Rattus norvegicus, UniProt P49684).
T2 construct: expressed in transfected cells
T2 sequence (P49684 1-386): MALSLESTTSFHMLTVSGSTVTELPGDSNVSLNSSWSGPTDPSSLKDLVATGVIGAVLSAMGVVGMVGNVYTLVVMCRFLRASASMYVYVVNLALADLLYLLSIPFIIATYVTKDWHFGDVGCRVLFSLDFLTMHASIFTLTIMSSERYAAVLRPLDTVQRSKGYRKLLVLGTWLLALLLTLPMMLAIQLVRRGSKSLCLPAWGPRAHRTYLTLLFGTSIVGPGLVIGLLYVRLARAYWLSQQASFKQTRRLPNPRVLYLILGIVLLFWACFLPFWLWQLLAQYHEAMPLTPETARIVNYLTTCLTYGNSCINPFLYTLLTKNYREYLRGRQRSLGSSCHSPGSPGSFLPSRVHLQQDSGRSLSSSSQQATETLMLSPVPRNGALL
The test can be described thus: Rat UII Calcium Mobilization FLIPR Assay. The conditions noted are these: average value for the compound tested; read-out: Rat UII FLIPR Average IC50. It counts as cell-based. In a few lines: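 CHO cells stably expressing rat U-II receptor, seeded 24 h before assay, were loaded with FLIPR calcium dye in HBSS/20 mM HEPES/0.1% BSA/2.5 mM probenecid, pH 7.4, for 1 h at 37° C. Calcium mobilization then read by FLIPR at 23° C.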

The target in test [3] is T3, endogenous human UII receptor (Homo sapiens, UniProt Q9UKP6).
T3 sequence (Q9UKP6 1-389): T1 sequence (Q9UKP6 1-389)
The experiment in a line: Human Radioligand Binding Assay ((^125I)-U-II binding to human skeletal muscle myoblasts).

Where [4] appears, read: read-out: Human UII Average Binding Ki, average value, (^125I)-U-II binding to human skeletal muscle myoblasts (HSMM), 25° C., 3 h.

Like-named read-outs stand apart in the source and are kept apart here.

For orientation: IC50 means the concentration needed to halve the response being measured. As usually defined, the Ki is the dissociation constant of the complex between target and ligand, obtained from inhibition or displacement.

Take `COc1ccc(C(CNC(=O)Cc2ccncc2)N2C(=O)c3cccc(N4CCN([C@H](C)c5ccccc5)CC4)c3C2=O)cc1OC` (stereo partly drawn) [Cpd 102, N-(2-(3,4-dimethoxy-phenyl)-2-{1,3-dioxo-4-[4-(1R)-(1-phenyl-ethyl)-piperazin-1-yl]-1,3-dihydro-isoindol-2-yl}-ethyl)-2-pyridin-4-yl-acetamide]: the 50% inhibitory concentration (IC50) is 520 nM in test [1] and 49 nM in test [2]. For the same molecule, the inhibitory constant (Ki) in test [3] was 99 nM.
Consider `COc1ccc(C(CCCNC(=O)c2cccs2)N2C(=O)c3cccc(N4CCN([C@H](C)c5ccccc5)CC4)c3C2=O)cc1OC` (stereo partly drawn) [Cpd 104, thiophene-2-carboxylic acid (4-(3,4-dimethoxy-phenyl)-4-{1,3-dioxo-4-[4-(1R)-(1-phenyl-ethyl)-piperazin-1-yl]-1,3-dihydro-isoindol-2-yl}-butyl)-amide], for which the half-inhibitory concentration (IC50) stood at 170 nM in test [1] and 53 nM in test [2]. In addition, the affinity in test [3] corresponds to a Ki of 120 nM.
For the molecule `COc1ccc(C(CCCNS(=O)(=O)c2ccsc2)N2C(=O)c3cccc(N4CCN([C@H](C)c5ccccc5)CC4)c3C2=O)cc1OC` (stereo partly drawn) [Cpd 105, thiophene-3-sulfonic acid (4-(3,4-dimethoxy-phenyl)-4-{1,3-dioxo-4-[4-(1R)-(1-phenyl-ethyl)-piperazin-1-yl]-1,3-dihydro-isoindol-2-yl}-butyl)-amide], the IC50 in test [1] is 110 nM; in test [2], 68 nM. The molecule also showed an inhibitory constant (Ki) in test [3] of 65 nM.
For `COc1ccc(C(CCCNS(=O)(=O)c2cccnc2)N2C(=O)c3cccc(N4CCN([C@H](C)c5ccccc5)CC4)c3C2=O)cc1OC` (stereo partly drawn) [Cpd 106, pyridine-3-sulfonic acid (4-(3,4-dimethoxy-phenyl)-4-{1,3-dioxo-4-[4-(1R)-(1-phenyl-ethyl)-piperazin-1-yl]-1,3-dihydro-isoindol-2-yl}-butyl)-amide] the same measures were 230 nM, 16 nM and 80 nM.
`COc1ccc(C(CCCNS(=O)(=O)c2ccccn2)N2C(=O)c3cccc(N4CCN([C@H](C)c5ccccc5)CC4)c3C2=O)cc1OC` (stereo partly drawn) [Cpd 107, pyridine-2-sulfonic acid (4-(3,4-dimethoxy-phenyl)-4-{1,3-dioxo-4-[4-(1R)-(1-phenyl-ethyl)-piperazin-1-yl]-1,3-dihydro-isoindol-2-yl}-butyl)-amide]: the IC50 in test [1] is 440 nM; in test [2], 25 nM. Besides, the inhibition constant Ki in test [3] came out at 10 nM.
As for `COc1ccc(C(CCCNS(=O)(=O)c2cnoc2C)N2C(=O)c3cccc(N4CCN([C@H](C)c5ccccc5)CC4)c3C2=O)cc1OC` (stereo partly drawn) [Cpd 108, 5-methyl-isoxazole-4-sulfonic acid (4-(3,4-dimethoxy-phenyl)-4-{1,3-dioxo-4-[4-(1R)-(1-phenyl-ethyl)-piperazin-1-yl]-1,3-dihydro-isoindol-2-yl}-butyl)-amide], the half-inhibitory concentration (IC50) in test [1] came to 46 nM; in test [2], 14 nM. Also, the Ki in test [3] was found to be 31 nM.
For `COc1ccc(C(CCCNS(=O)(=O)c2cccc3cccnc23)N2C(=O)c3cccc(N4CCN([C@H](C)c5ccccc5)CC4)c3C2=O)cc1OC` (stereo partly drawn) [Cpd 109, quinoline-8-sulfonic acid (4-(3,4-dimethoxy-phenyl)-4-{1,3-dioxo-4-[4-(1R)-(1-phenyl-ethyl)-piperazin-1-yl]-1,3-dihydro-isoindol-2-yl}-butyl)-amide] the same measures were 300 nM, 27 nM and 19 nM.
For `COc1ccc(C(CCCNS(=O)(=O)CS(C)(=O)=O)N2C(=O)c3cccc(N4CCN([C@H](C)c5ccccc5)CC4)c3C2=O)cc1OC` (stereo partly drawn) [Cpd 110, N-(4-(3,4-dimethoxy-phenyl)-4-{1,3-dioxo-4-[4-(1R)-(1-phenyl-ethyl)-piperazin-1-yl]-1,3-dihydro-isoindol-2-yl}-butyl)-C-methanesulfonyl-methanesulfonamide], in that order: 250 nM, 19 nM and 25 nM.
Consider `COc1ccc(C(CCCNS(=O)(=O)c2c(C)noc2C)N2C(=O)c3cccc(N4CCN([C@H](C)c5ccccc5)CC4)c3C2=O)cc1OC` (stereo partly drawn) [Cpd 112, 3,5-dimethyl-isoxazole-4-sulfonic acid (4-(3,4-dimethoxy-phenyl)-4-{1,3-dioxo-4-[4-(1R)-(1-phenyl-ethyl)-piperazin-1-yl]-1,3-dihydro-isoindol-2-yl}-butyl)-amide], for which the IC50 in test [1] came out at 1400 nM; in test [2], 69 nM. Also, the Ki in test [3] stood at 26 nM.
For `COc1ccc(C(CCCNS(=O)(=O)c2cn(C)c(C)n2)N2C(=O)c3cccc(N4CCN([C@H](C)c5ccccc5)CC4)c3C2=O)cc1OC` (stereo partly drawn) [Cpd 114, 1,2-dimethyl-1H-imidazole-4-sulfonic acid (4-(3,4-dimethoxy-phenyl)-4-{1,3-dioxo-4-[4-(1R)-(1-phenyl-ethyl)-piperazin-1-yl]-1,3-dihydro-isoindol-2-yl}-butyl)-amide] the same measures were 470 nM, 17 nM and 11 nM.
`COc1ccc(C(CCCNS(=O)(=O)N(C)C)N2C(=O)c3cccc(N4CCN([C@H](C)c5ccccc5)CC4)c3C2=O)cc1OC` (stereo partly drawn) [Cpd 115, N′-[(4-(3,4-dimethoxy-phenyl)-4-{1,3-dioxo-4-[4-(1R)-(1-phenyl-ethyl)-piperazin-1-yl]-1,3-dihydro-isoindol-2-yl}-butyl)]-N,N-dimethyl-sulfamide]: the IC50 in test [1] worked out at 460 nM; in test [2], 28 nM. In addition, the Ki in test [3] was 39 nM.
For `COc1ccc(C(CCCNS(=O)(=O)Cc2ccccc2)N2C(=O)c3cccc(N4CCN([C@H](C)c5ccccc5)CC4)c3C2=O)cc1OC` (stereo partly drawn) [Cpd 117, N-(4-(3,4-dimethoxy-phenyl)-4-{1,3-dioxo-4-[4-(1R)-(1-phenyl-ethyl)-piperazin-1-yl]-1,3-dihydro-isoindol-2-yl}-butyl)-C-phenyl-methanesulfonamide], in that order: 700 nM, 58 nM and 32 nM.
With `COc1ccc([C@@H](CCCNS(=O)(=O)c2cccs2)N2C(=O)c3cccc(N4CCN([C@H](C)c5ccccc5)CC4)c3C2=O)cc1OC` [Cpd 118, (R)-thiophene-2-sulfonic acid (4-(3,4-dimethoxy-phenyl)-4-{1,3-dioxo-4-[4-(1R)-(1-phenyl-ethyl)-piperazin-1-yl]-1,3-dihydro-isoindol-2-yl}-butyl)-amide], the IC50 in test [1] is 240 nM; in test [2] it was 29 nM. Further, the inhibitory constant (Ki) in test [3] (setting [4]) came out at 49 nM.
For `COc1ccc([C@H](CCCNS(=O)(=O)c2cccs2)N2C(=O)c3cccc(N4CCN([C@H](C)c5ccccc5)CC4)c3C2=O)cc1OC` [Cpd 119] the same measures were 260 nM, 69 nM and 120 nM.
